Measurements taken from PubChem BioAssay AID1963846 (Molecular Pharmacology Branch, DTP, NCI, 2024).

Test system: 454973-116-R2-J3-PDC complex spheroid viability
Assay: Anticancer human tumor 454973-116-R2-J3-PDC patient-derived pancreatic carcinoma cell line growth inhibition [POLQ]
Details: for IC50: curve of first compound; for viability, T/C: stronger effect = lower value; active = viability on the fitted dose curve at most 10% of control; inactive = the rest
In short: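 Growth inhibition in 3D: complex spheroids (tumor PDC, HUVEC, MSC) treated with POLQ inhibitor combinations; where Cmax unknown, highest tested concentration 10 microM, except SN-38 at 1 microM.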

[1] = second compound 0.0316 µM, first compound 0.0316 µM
[2] = second compound 0.0316 µM, first compound 0.1 µM
[3] = second compound 0.0316 µM, first compound 0.316 µM
[4] = second compound 0.0316 µM, first compound 1 µM
[5] = second compound 0.0316 µM, first compound 3.16 µM
[6] = second compound 0.0316 µM, first compound 10 µM
[7] = second compound 0.1 µM, first compound 0.0316 µM
[8] = second compound 0.1 µM, first compound 0.1 µM
[9] = second compound 0.1 µM, first compound 0.316 µM
[10] = second compound 0.1 µM, first compound 1 µM
[11] = second compound 0.1 µM, first compound 3.16 µM
[12] = second compound 0.1 µM, first compound 10 µM
[13] = second compound 0.316 µM, first compound 0.0316 µM
[14] = second compound 0.316 µM, first compound 0.1 µM
[15] = second compound 0.316 µM, first compound 0.316 µM
[16] = second compound 0.316 µM, first compound 1 µM
[17] = second compound 0.316 µM, first compound 3.16 µM
[18] = second compound 0.316 µM, first compound 10 µM
[19] = second compound 1 µM, first compound 0.0316 µM
[20] = second compound 1 µM, first compound 0.1 µM
[21] = second compound 1 µM, first compound 0.316 µM
[22] = second compound 1 µM, first compound 1 µM
[23] = second compound 1 µM, first compound 3.16 µM
[24] = second compound 1 µM, first compound 10 µM
[25] = second compound 3.16 µM, first compound 0.0316 µM
[26] = second compound 3.16 µM, first compound 0.1 µM
[27] = second compound 3.16 µM, first compound 0.316 µM
[28] = second compound 3.16 µM, first compound 1 µM
[29] = second compound 3.16 µM, first compound 3.16 µM
[30] = second compound 3.16 µM, first compound 10 µM
[31] = second compound 10 µM, first compound 0.0316 µM
[32] = second compound 10 µM, first compound 0.1 µM
[33] = second compound 10 µM, first compound 0.316 µM
[34] = second compound 10 µM, first compound 1 µM
[35] = second compound 10 µM, first compound 3.16 µM
[36] = second compound 10 µM, first compound 10 µM
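Also: spheroids exposed to drugs for seven days before measurement.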
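For viability, T/C in this document: percent viability relative to DMSO vehicle control wells taken as 100%.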

O=c1[nH]cc(F)c(=O)[nH]1 + COC1C(OC(N)=O)C(O)C(Oc2ccc3c(O)c(NC(=O)c4ccc(O)c(CC=C(C)C)c4)c(=O)oc3c2C)OC1(C)C
3.27 µM: IC50 (second compound 10 µM)
inactive: viability, T/C [1] 104% | viability, T/C [2] 104% | viability, T/C [3] 110% | viability, T/C [4] 100% | viability, T/C [5] 55.6% | viability, T/C [6] 31.2% | viability, T/C [7] 105% | viability, T/C [8] 108% | viability, T/C [9] 106% | viability, T/C [10] 98% | viability, T/C [11] 60.6% | viability, T/C [12] 31.4% | viability, T/C [13] 112% | viability, T/C [14] 108% | viability, T/C [15] 108% | viability, T/C [16] 96.9% | viability, T/C [17] 55.2% | viability, T/C [18] 34.9% | viability, T/C [19] 112% | viability, T/C [20] 111% | viability, T/C [21] 110% | viability, T/C [22] 96.4% | viability, T/C [23] 53.9% | viability, T/C [24] 35.1% | viability, T/C [25] 112% | viability, T/C [26] 118% | viability, T/C [27] 113% | viability, T/C [28] 97.6% | viability, T/C [29] 63.4% | viability, T/C [30] 36.9% | viability, T/C [31] 111% | viability, T/C [32] 108% | viability, T/C [33] 109% | viability, T/C [34] 100% | viability, T/C [35] 50.6% | viability, T/C [36] 31.3%
4.01 µM: IC50 (second compound 1 µM)
4.27 µM: IC50 (second compound 0.316 µM)
4.8 µM: IC50 (second compound 0.1 µM)
4.11 µM: IC50 (second compound 0.0316 µM)
5.63 µM: IC50 (second compound 3.16 µM)

COc1cc(C2c3cc4c(cc3C(OC3OC5COC(C)OC5C(O)C3O)C3COC(=O)C23)OCO4)cc(OC)c1O (stereo not drawn) + COC1C(OC(N)=O)C(O)C(Oc2ccc3c(O)c(NC(=O)c4ccc(O)c(CC=C(C)C)c4)c(=O)oc3c2C)OC1(C)C
1.81 µM: IC50 (second compound 0.316 µM)
1.6 µM: IC50 (second compound 1 µM)
1.59 µM: IC50 (second compound 0.0316 µM)
1.33 µM: IC50 (second compound 10 µM)
inactive: viability, T/C [1] 97.7% | viability, T/C [2] 108% | viability, T/C [3] 92.7% | viability, T/C [4] 66.8% | viability, T/C [5] 25.3% | viability, T/C [7] 100% | viability, T/C [8] 111% | viability, T/C [9] 93% | viability, T/C [10] 67.8% | viability, T/C [11] 23.5% | viability, T/C [12] 11.8% | viability, T/C [13] 106% | viability, T/C [14] 107% | viability, T/C [15] 93.8% | viability, T/C [16] 81.2% | viability, T/C [17] 20.7% | viability, T/C [19] 116% | viability, T/C [20] 97.9% | viability, T/C [21] 95.6% | viability, T/C [22] 70.4% | viability, T/C [23] 21.9% | viability, T/C [25] 118% | viability, T/C [26] 101% | viability, T/C [27] 96.6% | viability, T/C [28] 63.6% | viability, T/C [29] 24.7% | viability, T/C [31] 122% | viability, T/C [32] 94.7% | viability, T/C [33] 90.6% | viability, T/C [34] 61.4% | viability, T/C [35] 21.4%
active: viability, T/C [6] 9.55% | viability, T/C [18] 9.08% | viability, T/C [24] 10.6% | viability, T/C [30] 9.62% | viability, T/C [36] 8.32%
1.57 µM: IC50 (second compound 0.1 µM)
1.49 µM: IC50 (second compound 3.16 µM)

CCc1cc2c(N3CCc4c(cc(Cn5ccnc5)cc4-c4cn(C)nc4C(F)(F)F)C3=O)cc(C)nc2c(OC)n1 + Nc1ccc(C#CCN(C(=O)Cc2ncc(C(F)(F)F)cc2C(F)(F)F)c2ccc(F)cc2)nn1
inactive: viability, T/C [1] 99.6% | viability, T/C [2] 87.8% | viability, T/C [3] 73.5% | viability, T/C [4] 72.2% | viability, T/C [5] 64.4% | viability, T/C [6] 56.5% | viability, T/C [7] 99.1% | viability, T/C [8] 88.4% | viability, T/C [9] 82.6% | viability, T/C [10] 74.2% | viability, T/C [11] 63.2% | viability, T/C [12] 56.9% | viability, T/C [13] 96.2% | viability, T/C [14] 91.1% | viability, T/C [15] 78.9% | viability, T/C [16] 79.2% | viability, T/C [17] 70.8% | viability, T/C [18] 55% | viability, T/C [19] 97.7% | viability, T/C [20] 87.3% | viability, T/C [21] 81.6% | viability, T/C [22] 79% | viability, T/C [23] 63% | viability, T/C [24] 50.9% | viability, T/C [25] 101% | viability, T/C [26] 95.3% | viability, T/C [27] 90.8% | viability, T/C [28] 84.5% | viability, T/C [29] 68.3% | viability, T/C [30] 59.6% | viability, T/C [31] 100% | viability, T/C [32] 114% | viability, T/C [33] 86.3% | viability, T/C [34] 78.6% | viability, T/C [35] 80.1% | viability, T/C [36] 56.8%
> 10 µM: IC50 (second compound 0.0316 µM) | IC50 (second compound 0.1 µM) | IC50 (second compound 0.316 µM) | IC50 (second compound 1 µM) | IC50 (second compound 3.16 µM) | IC50 (second compound 10 µM)

CCc1cc2c(N3CCc4c(cc(Cn5ccnc5)cc4-c4cn(C)nc4C(F)(F)F)C3=O)cc(C)nc2c(OC)n1 + COC1C(OC(N)=O)C(O)C(Oc2ccc3c(O)c(NC(=O)c4ccc(O)c(CC=C(C)C)c4)c(=O)oc3c2C)OC1(C)C
inactive: viability, T/C [1] 111% | viability, T/C [2] 93.7% | viability, T/C [3] 91.5% | viability, T/C [4] 87.9% | viability, T/C [5] 87.2% | viability, T/C [6] 75.1% | viability, T/C [7] 94.1% | viability, T/C [8] 107% | viability, T/C [9] 95.2% | viability, T/C [10] 91.2% | viability, T/C [11] 81% | viability, T/C [12] 71% | viability, T/C [13] 101% | viability, T/C [14] 103% | viability, T/C [15] 91.8% | viability, T/C [16] 94.1% | viability, T/C [17] 83.6% | viability, T/C [18] 73.2% | viability, T/C [19] 110% | viability, T/C [20] 95% | viability, T/C [21] 105% | viability, T/C [22] 98% | viability, T/C [23] 84.7% | viability, T/C [24] 76.3% | viability, T/C [25] 109% | viability, T/C [26] 102% | viability, T/C [27] 93.9% | viability, T/C [28] 88.2% | viability, T/C [29] 85.9% | viability, T/C [30] 70.3% | viability, T/C [31] 103% | viability, T/C [32] 90.5% | viability, T/C [33] 89.6% | viability, T/C [34] 85.3% | viability, T/C [35] 84% | viability, T/C [36] 67.6%
> 10 µM: IC50 (second compound 0.0316 µM) | IC50 (second compound 0.1 µM) | IC50 (second compound 0.316 µM) | IC50 (second compound 1 µM) | IC50 (second compound 3.16 µM) | IC50 (second compound 10 µM)
